Measured values published in patent US6972319B1, “Pituitary adenylate cyclase activating peptide (PACAP)receptor 3 (R3) agonists and their pharmacological methods of use” (priority 1999, dated 2005).
pEC50: −log10 of the molar value. No end group written: not given here.

Target: T1, PACAP-R2 (Homo sapiens, UniProt P32241)
T1 construct: expressed in transfected cells; host or cells: CHO cells
T1 sequence (P32241 31-457): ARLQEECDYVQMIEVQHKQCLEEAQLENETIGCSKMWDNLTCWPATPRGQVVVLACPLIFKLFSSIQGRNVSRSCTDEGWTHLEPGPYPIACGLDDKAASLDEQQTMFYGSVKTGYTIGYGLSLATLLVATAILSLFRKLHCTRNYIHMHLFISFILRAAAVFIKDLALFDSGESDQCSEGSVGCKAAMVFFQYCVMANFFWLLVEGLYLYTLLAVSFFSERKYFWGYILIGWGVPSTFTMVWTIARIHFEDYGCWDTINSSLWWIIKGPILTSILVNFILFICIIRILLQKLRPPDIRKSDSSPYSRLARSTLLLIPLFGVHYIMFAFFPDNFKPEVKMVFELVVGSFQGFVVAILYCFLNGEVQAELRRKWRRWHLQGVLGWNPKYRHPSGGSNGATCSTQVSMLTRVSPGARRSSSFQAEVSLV
Experiment: Cyclic AMP SPA on CHO cells transfected with PACAP-R2
Format: cell-based
Details: cAMP SPA, concentration at which 50% of maximum PACAP27 activity is achieved, NA = no detectable activities, read-out: R2 EC50
Description: CHO cells expressing the PACAP R3 were plated in 96-well plates (Costar) at 8×10^4 cell/well and grown at 37 C. for 24 hours in α MEM+nucleosides+glutamine (Giobco BRL), 10% FBS, 100 μg/ml Pen/Strep, 0.3 mg/ml glutamine, 1 mM HEPES, 0.5 mg/ml Geneticin (Gibco BRL). The media was removed and the plates were washed with PBS. The cells were incubated with a peptide, in Hepes-PBS-BSA with 0.4 mg/mlSoybean Trypsin Inhibitor, 0.5 mg/ml Bacitracin, 100 uM IBMX, for 15 min at 37 C. Cyclic AMP in the cell extracts was quantitated using the cAMP SPA direct screening assay system (Amersham Pharmacia Biotech Inc, Piscataway, N.J.,). The peptides shown in Table 3 were assayed for cAMP activity.
EC50 is defined as the concentration of the polypeptide at which 50% of maximum PACAP27 activity is achieved. “NA” denotes no detectable activities. “R3 Selectivity” is derived from the ratio of EC50 at R2 versus EC50 at R3.

| Compound | pEC50 |
| --- | --- |
| CC[C@H](C)[C@H](NC(=O)[C@H](CO)NC(=O)[C@H](CC(N)=O)NC(=O)[C@H](CC(C)C)NC(=O)[C@H](Cc1ccc(O)cc1)NC(=O)[C@H](CCCCN)NC(=O)[C@H](CCCCN)NC(=O)[C@H](C)NC(=O)[C@H](C)NC(=O)[C@H](CCSC)NC(=O)[C@H](CCC(N)=O)NC(=O)[C@H](CCCCN)NC(=O)[C@H](CCCNC(=N)N)NC(=O)[C@H](CC(C)C)NC(=O)[C@H](CCCNC(=N)N)NC(=O)[C@@H](NC(=O)[C@H](Cc1ccc(O)cc1)NC(=O)[C@H](CC(N)=O)NC(=O)[C@H](CC(=O)O)NC(=O)[C@@H](NC(=O)[C@H](Cc1ccccc1)NC(=O)[C@@H](NC(=O)[C@H](C)NC(=O)[C@H](CC(=O)O)NC(=O)[C@H](CO)NC(=O)[C@@H](N)Cc1c[nH]cn1)C(C)C)[C@@H](C)O)[C@@H](C)O)C(=O)N[C@@H](CCSC)C(=O)N[C@@H](CC(N)=O)C(=O)N[C@@H](CCCCN)C(=O)N[C@@H](CCCNC(=N)N)C(=O)O [Peptide R3P124] | 8.52 |
| CC[C@H](C)[C@H](NC(=O)[C@H](CO)NC(=O)[C@H](CC(N)=O)NC(=O)[C@H](CC(C)C)NC(=O)[C@H](Cc1ccc(O)cc1)NC(=O)[C@H](CCCCN)NC(=O)[C@H](CCCCN)NC(=O)[C@H](C)NC(=O)[C@H](C)NC(=O)[C@H](CCSC)NC(=O)[C@H](CCC(N)=O)NC(=O)[C@H](CCCCN)NC(=O)[C@H](CCCNC(=N)N)NC(=O)[C@H](CC(C)C)NC(=O)[C@H](CCCNC(=N)N)NC(=O)[C@@H](NC(=O)[C@H](Cc1ccc(O)cc1)NC(=O)[C@H](CC(N)=O)NC(=O)[C@H](CC(=O)O)NC(=O)[C@@H](NC(=O)[C@H](Cc1ccccc1)NC(=O)[C@@H](NC(=O)[C@H](C)NC(=O)[C@H](CC(=O)O)NC(=O)[C@H](CO)NC(=O)[C@@H](N)Cc1c[nH]cn1)C(C)C)[C@@H](C)O)[C@@H](C)O)C(=O)N[C@@H](Cc1ccc(O)cc1)C(=O)N[C@@H](CC(N)=O)C(=O)N[C@@H](CCCCN)C(=O)N[C@@H](CCCNC(=N)N)C(=O)O [Peptide R3P133] | 8.10 |
| CC[C@H](C)[C@H](NC(=O)[C@H](CO)NC(=O)[C@H](CC(N)=O)NC(=O)[C@H](CC(C)C)NC(=O)[C@H](Cc1ccc(O)cc1)NC(=O)[C@H](CCCCN)NC(=O)[C@H](CCCCN)NC(=O)[C@H](C)NC(=O)[C@H](C)NC(=O)[C@H](CCSC)NC(=O)[C@H](CCC(N)=O)NC(=O)[C@H](CCCCN)NC(=O)[C@H](CCCNC(=N)N)NC(=O)[C@H](CC(C)C)NC(=O)[C@H](CCCNC(=N)N)NC(=O)[C@@H](NC(=O)[C@H](Cc1ccc(O)cc1)NC(=O)[C@H](CC(N)=O)NC(=O)[C@H](CC(=O)O)NC(=O)[C@@H](NC(=O)[C@H](Cc1ccccc1)NC(=O)[C@@H](NC(=O)[C@H](C)NC(=O)[C@H](CC(=O)O)NC(=O)[C@H](CO)NC(=O)[C@@H](N)Cc1c[nH]cn1)C(C)C)[C@@H](C)O)[C@@H](C)O)C(=O)N[C@@H](CCCCN)C(=O)N[C@@H](CC(N)=O)C(=O)N[C@@H](C)C(=O)N[C@@H](CCCNC(=N)N)C(=O)O [Peptide R3P134] | 7.40 |
| CC[C@H](C)[C@H](NC(=O)[C@H](CO)NC(=O)[C@H](CC(N)=O)NC(=O)[C@H](CC(C)C)NC(=O)[C@H](Cc1ccc(O)cc1)NC(=O)[C@H](CCCCN)NC(=O)[C@H](CCCCN)NC(=O)[C@H](C)NC(=O)[C@H](C)NC(=O)[C@H](CCSC)NC(=O)[C@H](CCC(N)=O)NC(=O)[C@H](CCCCN)NC(=O)[C@H](CCCNC(=N)N)NC(=O)[C@H](CC(C)C)NC(=O)[C@H](CCCNC(=N)N)NC(=O)[C@@H](NC(=O)[C@H](Cc1ccc(O)cc1)NC(=O)[C@H](CC(N)=O)NC(=O)[C@H](CC(=O)O)NC(=O)[C@@H](NC(=O)[C@H](Cc1ccccc1)NC(=O)[C@@H](NC(=O)[C@H](C)NC(=O)[C@H](CC(=O)O)NC(=O)[C@H](CO)NC(=O)[C@@H](N)Cc1c[nH]cn1)C(C)C)[C@@H](C)O)[C@@H](C)O)C(=O)N[C@@H](CCCCN)C(=O)N[C@@H](CC(N)=O)C(=O)N[C@@H](CCCCN)C(=O)N[C@@H](CC(C)C)C(=O)O [Peptide R3P162] | 7.70 |
| CC[C@H](C)[C@H](NC(=O)[C@H](CO)NC(=O)[C@H](CC(N)=O)NC(=O)[C@H](CC(C)C)NC(=O)[C@H](Cc1ccc(O)cc1)NC(=O)[C@H](CCCCN)NC(=O)[C@H](CCCCN)NC(=O)[C@H](C)NC(=O)[C@H](C)NC(=O)[C@H](CCSC)NC(=O)[C@H](CCC(N)=O)NC(=O)[C@H](CCCCN)NC(=O)[C@H](CCCNC(=N)N)NC(=O)[C@H](CC(C)C)NC(=O)[C@H](CCCNC(=N)N)NC(=O)[C@@H](NC(=O)[C@H](Cc1ccc(O)cc1)NC(=O)[C@H](CC(N)=O)NC(=O)[C@H](CC(=O)O)NC(=O)[C@@H](NC(=O)[C@H](Cc1ccccc1)NC(=O)[C@@H](NC(=O)[C@H](C)NC(=O)[C@H](CC(=O)O)NC(=O)[C@H](CO)NC(=O)[C@@H](N)Cc1c[nH]cn1)C(C)C)[C@@H](C)O)[C@@H](C)O)C(=O)N[C@@H](CCCCN)C(=O)N[C@@H](CC(N)=O)C(=O)N[C@@H](CCCCN)C(=O)N[C@@H](CCSC)C(=O)O [Peptide R3P163] | 7.40 |
| CC[C@H](C)[C@H](NC(=O)[C@H](CO)NC(=O)[C@H](CC(N)=O)NC(=O)[C@H](CC(C)C)NC(=O)[C@H](Cc1ccc(O)cc1)NC(=O)[C@H](CCCCN)NC(=O)[C@H](CCCCN)NC(=O)[C@H](C)NC(=O)[C@H](C)NC(=O)[C@H](CCSC)NC(=O)[C@H](CCC(N)=O)NC(=O)[C@H](CCCCN)NC(=O)[C@H](CCCNC(=N)N)NC(=O)[C@H](CC(C)C)NC(=O)[C@H](CCCNC(=N)N)NC(=O)[C@@H](NC(=O)[C@H](Cc1ccc(O)cc1)NC(=O)[C@H](CC(N)=O)NC(=O)[C@H](CC(=O)O)NC(=O)[C@@H](NC(=O)[C@H](Cc1ccccc1)NC(=O)[C@@H](NC(=O)[C@H](C)NC(=O)[C@H](CC(=O)O)NC(=O)[C@H](CO)NC(=O)[C@@H](N)Cc1c[nH]cn1)C(C)C)[C@@H](C)O)[C@@H](C)O)C(=O)N[C@@H](CCCCN)C(=O)N[C@@H](CC(N)=O)C(=O)N[C@@H](CCCCN)C(=O)N[C@@H](CCC(N)=O)C(=O)O [Peptide R3P166] | 7.30 |
| HSDAVFTDNYTRLRKQLAAKKYLNDIKNGGT [Peptide R3P24] | 7.35 |

Further lines, results first:

| pEC50 | Compound |
| --- | --- |
| 6.52 | CC[C@H](C)[C@H](NC(=O)[C@H](CO)NC(=O)[C@H](CC(N)=O)NC(=O)[C@H](CC(C)C)NC(=O)[C@H](Cc1ccc(O)cc1)NC(=O)[C@H](CCCCN)NC(=O)[C@H](CCCCN)NC(=O)[C@H](C)NC(=O)[C@H](C)NC(=O)[C@H](CCSC)NC(=O)[C@H](CCC(N)=O)NC(=O)[C@H](CCCCN)NC(=O)[C@H](CCCNC(=N)N)NC(=O)[C@H](CC(C)C)NC(=O)[C@H](CCCNC(=N)N)NC(=O)[C@@H](NC(=O)[C@H](Cc1ccc(O)cc1)NC(=O)[C@H](CC(N)=O)NC(=O)[C@H](CC(=O)O)NC(=O)[C@@H](NC(=O)[C@H](Cc1ccccc1)NC(=O)[C@@H](NC(=O)[C@H](C)NC(=O)[C@H](CC(=O)O)NC(=O)[C@H](CO)NC(=O)[C@@H](N)Cc1c[nH]cn1)C(C)C)[C@@H](C)O)[C@@H](C)O)C(=O)N[C@@H](CCCCN)C(=O)N[C@@H](CC(N)=O)C(=O)N[C@@H](CCCCN)C(=O)N[C@@H](CO)C(=O)O [Peptide R3P167] |
| 7.70 | CC[C@H](C)[C@H](NC(=O)[C@H](CO)NC(=O)[C@H](CC(N)=O)NC(=O)[C@H](CC(C)C)NC(=O)[C@H](Cc1ccc(O)cc1)NC(=O)[C@H](CCCCN)NC(=O)[C@H](CCCCN)NC(=O)[C@H](C)NC(=O)[C@H](C)NC(=O)[C@H](CCSC)NC(=O)[C@H](CCC(N)=O)NC(=O)[C@H](CCCCN)NC(=O)[C@H](CCCNC(=N)N)NC(=O)[C@H](CC(C)C)NC(=O)[C@H](CCCNC(=N)N)NC(=O)[C@@H](NC(=O)[C@H](Cc1ccc(O)cc1)NC(=O)[C@H](CC(N)=O)NC(=O)[C@H](CC(=O)O)NC(=O)[C@@H](NC(=O)[C@H](Cc1ccccc1)NC(=O)[C@@H](NC(=O)[C@H](C)NC(=O)[C@H](CC(=O)O)NC(=O)[C@H](CO)NC(=O)[C@@H](N)Cc1c[nH]cn1)C(C)C)[C@@H](C)O)[C@@H](C)O)C(=O)N[C@@H](CCCCN)C(=O)N[C@@H](CC(N)=O)C(=O)N[C@@H](CCCCN)C(=O)N[C@@H](Cc1c[nH]c2ccccc12)C(=O)O [Peptide R3P170] |
| 7.10 | CC[C@H](C)[C@H](NC(=O)[C@H](CO)NC(=O)[C@H](CC(N)=O)NC(=O)[C@H](CC(C)C)NC(=O)[C@H](Cc1ccc(O)cc1)NC(=O)[C@H](CCCCN)NC(=O)[C@H](CCCCN)NC(=O)[C@H](C)NC(=O)[C@H](C)NC(=O)[C@H](CCSC)NC(=O)[C@H](CCC(N)=O)NC(=O)[C@H](CCCCN)NC(=O)[C@H](CCCNC(=N)N)NC(=O)[C@H](CC(C)C)NC(=O)[C@H](CCCNC(=N)N)NC(=O)[C@@H](NC(=O)[C@H](Cc1ccc(O)cc1)NC(=O)[C@H](CC(N)=O)NC(=O)[C@H](CC(=O)O)NC(=O)[C@@H](NC(=O)[C@H](Cc1ccccc1)NC(=O)[C@@H](NC(=O)[C@H](C)NC(=O)[C@H](CC(=O)O)NC(=O)[C@H](CO)NC(=O)[C@@H](N)Cc1c[nH]cn1)C(C)C)[C@@H](C)O)[C@@H](C)O)C(=O)N[C@@H](CCCCN)C(=O)N[C@@H](CC(N)=O)C(=O)N[C@@H](CCCCN)C(=O)N[C@@H](Cc1ccc(O)cc1)C(=O)O [Peptide R3P171] |
